Test results from ChEMBL document CHEMBL1123526, “3-Hydroxy-3-methylglutaryl-coenzyme A reductase inhibitors. 4. Side chain ester derivatives of mevinolin” (J Med Chem, 1986).

Target: T1, 3-hydroxy-3-methylglutaryl-coenzyme A reductase (Rattus norvegicus, UniProt P51639)
T1 sequence (P51639 whole entry): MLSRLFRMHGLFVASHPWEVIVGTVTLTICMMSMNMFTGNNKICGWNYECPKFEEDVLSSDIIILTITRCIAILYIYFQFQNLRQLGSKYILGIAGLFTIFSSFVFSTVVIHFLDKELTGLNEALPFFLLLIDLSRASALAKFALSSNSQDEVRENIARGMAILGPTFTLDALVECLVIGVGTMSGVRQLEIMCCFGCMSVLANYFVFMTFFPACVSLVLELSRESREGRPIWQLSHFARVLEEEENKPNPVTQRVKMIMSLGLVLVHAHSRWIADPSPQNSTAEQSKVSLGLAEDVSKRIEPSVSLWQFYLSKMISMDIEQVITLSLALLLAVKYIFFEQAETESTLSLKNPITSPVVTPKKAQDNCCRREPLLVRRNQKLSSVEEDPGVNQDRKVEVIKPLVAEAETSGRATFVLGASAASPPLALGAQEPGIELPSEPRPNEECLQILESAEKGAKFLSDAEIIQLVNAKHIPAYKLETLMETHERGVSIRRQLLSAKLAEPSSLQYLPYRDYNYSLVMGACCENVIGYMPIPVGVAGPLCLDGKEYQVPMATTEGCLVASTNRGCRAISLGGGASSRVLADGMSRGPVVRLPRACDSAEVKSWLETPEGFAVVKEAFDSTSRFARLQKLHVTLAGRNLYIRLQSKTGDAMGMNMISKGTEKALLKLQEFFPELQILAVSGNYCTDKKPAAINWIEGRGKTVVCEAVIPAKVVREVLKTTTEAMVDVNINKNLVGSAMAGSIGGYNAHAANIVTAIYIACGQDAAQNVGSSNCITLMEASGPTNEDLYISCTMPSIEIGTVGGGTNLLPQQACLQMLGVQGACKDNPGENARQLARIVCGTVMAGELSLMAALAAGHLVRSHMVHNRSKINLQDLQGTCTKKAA
Experiment: Inhibition of solubilized, purified rat liver HMG-CoA reductase.

In order of rising IC50:
1. CCC(C)(CC)C(=O)O[C@H]1C[C@@H](C)C=C2C=C[C@H](C)[C@H](CC[C@@H]3C[C@@H](O)CC(=O)O3)C21 (some centres undefined)  1.4 nM
2. CCC(CC)(CC)C(=O)O[C@H]1C[C@@H](C)C=C2C=C[C@H](C)[C@H](CC[C@@H]3C[C@@H](O)CC(=O)O3)C21 (some centres undefined)  1.4 nM
3. CCCC(CC)(CC)C(=O)O[C@H]1C[C@@H](C)C=C2C=C[C@H](C)[C@H](CC[C@@H]3C[C@@H](O)CC(=O)O3)C21 (some centres undefined)  1.9 nM
4. CC[C@H](C)C(=O)O[C@H]1C[C@@H](C)C=C2C=C[C@H](C)[C@H](CC[C@@H]3C[C@@H](O)CC(=O)O3)C21 (some centres undefined)  2.2 nM
5. CC[C@@H](C)C(=O)O[C@H]1C[C@@H](C)C=C2C=C[C@H](C)[C@H](CC[C@@H]3C[C@@H](O)CC(=O)O3)C21 (some centres undefined)  2.2 nM
6. C[C@H]1C=C2C=C[C@H](C)[C@H](CC[C@@H]3C[C@@H](O)CC(=O)O3)C2[C@@H](OC(=O)C(C)(C)C)C1 (some centres undefined)  2.7 nM
7. C=C(C)CC(=O)O[C@H]1C[C@@H](C)C=C2C=C[C@H](C)[C@H](CC[C@@H]3C[C@@H](O)CC(=O)O3)C21 (some centres undefined)  2.9 nM
8. CC(CC(=O)O[C@H]1C[C@@H](C)C=C2C=C[C@H](C)[C@H](CC[C@@H]3C[C@@H](O)CC(=O)O3)C21)C(F)(F)F (some centres undefined)  3.5 nM
9. C[C@H]1C=C2C=C[C@H](C)[C@H](CC[C@@H]3C[C@@H](O)CC(=O)O3)C2[C@@H](OC(=O)C23CC4CC(CC(C4)C2)C3)C1 (some centres undefined)  3.8 nM
10. CC(C)CC(=O)O[C@H]1C[C@@H](C)C=C2C=C[C@H](C)[C@H](CC[C@@H]3C[C@@H](O)CC(=O)O3)C21 (some centres undefined)  5.4 nM
11. CC(C)C(=O)O[C@H]1C[C@@H](C)C=C2C=C[C@H](C)[C@H](CC[C@@H]3C[C@@H](O)CC(=O)O3)C21 (some centres undefined)  7.7 nM
12. CCCCC(=O)O[C@H]1C[C@@H](C)C=C2C=C[C@H](C)[C@H](CC[C@@H]3C[C@@H](O)CC(=O)O3)C21 (some centres undefined)  8.7 nM
13. C[C@H]1C=C2C=C[C@H](C)[C@H](CC[C@@H]3C[C@@H](O)CC(=O)O3)[C@H]2[C@@H](OC(=O)Cc2ccccc2)C1  19 nM
14. CC(C)=CC(=O)O[C@H]1C[C@@H](C)C=C2C=C[C@H](C)[C@H](CC[C@@H]3C[C@@H](O)CC(=O)O3)C21 (some centres undefined)  27.3 nM
15. C[C@H]1C=C2C=C[C@H](C)[C@H](CC[C@@H]3C[C@@H](O)CC(=O)O3)C2[C@@H](OC(=O)c2ccc(F)cc2)C1 (some centres undefined)  37 nM
16. C[C@H]1C=C2C=C[C@H](C)[C@H](CC[C@@H]3C[C@@H](O)CC(=O)O3)C2[C@@H](OC(=O)C2CC2)C1 (some centres undefined)  38.6 nM
17. C[C@H]1C=C2C=C[C@H](C)[C@H](CC[C@@H]3C[C@@H](O)CC(=O)O3)C2[C@@H](OC(=O)Oc2ccccc2)C1 (some centres undefined)  83 nM
18. CC(=O)O[C@H]1C[C@@H](C)C=C2C=C[C@H](C)[C@H](CC[C@@H]3C[C@@H](O)CC(=O)O3)C21 (some centres undefined)  269 nM
19. CCCCCCCCCC(=O)O[C@H]1C[C@@H](C)C=C2C=C[C@H](C)[C@H](CC[C@@H]3C[C@@H](O)CC(=O)O3)C21 (some centres undefined)  295 nM
